Laboratory results from paper PMC6630443 (Viruses, 2019).

Assays:
[1] = test system: USUV; assay: microbe, parasite or virus in culture; format: cell-based; details: Usutu virus, Vero, 48 h
[2] = test system: Vero cells
[3] = in vitro; details: African green monkey
[4] = test system: persistent USUV; format: cell-based, Usutu virus
[5] = test system: persistent USUV; format: cell-based, Usutu virus; remark: listed apart in the source
[6] = in vivo; cited from earlier work

## O=c1[nH]cc(F)c(=O)[nH]1 [5-Fluorouracil, 2,4-dihydroxy-5-fluoropyrimidine]
[1]
  IC50: 71 µM
[2]
  Toxicity in words: elevated toxicity
[3]
  CC50: 66 µM

## NC(=O)c1nc(F)cnc1O [Favipiravir, 6-fluoro-3-hydroxy-2-pyrazinecarboxamide]
[1]
  IC50: 315 µM
[4]
  Day by which infectious virus in the cellular supernatant is completely extinct: ≤ 6 days
  Decrease in virus titers and RNA levels in cellular supernatants: ~ 5 log10
[5]
  Decrease in intracellular viral RNA levels: < 2 log10
[3]
  CC50: > 2000 µM
[6]
  Plasma concentration: 1500 to 2000 µM

## NC(=O)c1ncn([C@@H]2O[C@H](CO)[C@@H](O)[C@H]2O)n1 [Ribavirin, 1-(β-D-Ribofuranosyl)-1H-1,2,4-triazole-3-carboxamide]
[1]
  IC50: 163 µM
[4]
  Day by which infectious virus in the cellular supernatant is completely extinct: ≤ 6 days
  Decrease in virus titers and RNA levels in cellular supernatants: ~ 5 log10
[5]
  Decrease in intracellular viral RNA levels: < 2 log10
[3]
  CC50: > 2000 µM
